Test results from patent US20050038102A1, “Upregulation of type III endothelial cell Nitric Oxide Synthase by HMG-CoA reductase inhibitors” (BRIGHAM AND WOMENS HOSPITAL, priority 1997, published 2005).

Legend:
eNOS null mice = assay: Regional cerebral blood flow by laser-Doppler flowimetry, eNOS null mice; type: in vivo; conditions: L-arginine 450 mg/kg, i.v., 40 minute recording period
Procedure: L-arginine infusion at 300 mg/kg, i.v., caused modest (10%) and variable elevations in regional cerebral blood flow (rCBF) after infusion in several preliminary experiments (n=4, data not shown). […] Regional cerebral blood flow (rCBF) was monitored by laser-Doppler flowimetry in groups of urethane-anesthetized, ventilated mice. Additional physiological variables were also monitored in the mice, including mean arterial blood pressure (MABP), heart rate, blood pH, PaO2, and PaCO2.
(§1) FIG. 5 is a bar graph showing regional CBF changes in wild type and eNOS null mice for 40 min after L-arginine (450 mg/kg) or saline infusion at a constant rate of 100 microliter/kg/min over 15 min. The number of mice in each group is indicated in parenthesis. Error bars denote standard error of the mean (SEM), and an asterisk (*) denotes statistically significant difference (P<0.05) compared with baseline control by one-way ANOVA followed by Fisher's protected least-squares difference test.

wild type mice = assay: Regional cerebral blood flow by laser-Doppler flowimetry, wild type and simvastatin-treated mice; type: in vivo
Procedure: Regional cerebral blood flow (rCBF) was monitored by laser-Doppler flowimetry in groups of urethane-anesthetized, ventilated mice. Additional physiological variables were also monitored in the mice, including mean arterial blood pressure (MABP), heart rate, blood pH, PaO2, and PaCO2.
as §1
Error bars denote SEM and an asterisk (*) denotes statistically significant difference (P<0.05) compared with baseline control by one-way ANOVA followed by Fisher's protected least-squares difference test.

wildtype SV-129 mice = assay: Murine model of cerebral vascular ischemia (MCA occlusion), wild-type; type: in vivo; conditions: lovastatin treatment
Text: The neurological motor deficit score improved in simvastatin-treated mice (n-18) by almost 2-fold compared to that of controls (n=12) (0.8±0.2 vs. 1.7±0.2, p<0.01).

ecNOS protein = assay: Western blotting of ecNOS protein levels in endothelial cells; type: cell-based, human; conditions: for increase in ecNOS protein levels / ecNOS expression / increase in ecNOS protein levels: 0.1 mmol/L alone
Procedure: Human endothelial cells were harvested from saphenous veins and cultured as described (15). For transfection studies, bovine aortic endothelial cells of less than 3 passages were cultured in a growth medium containing DMEM (Dulbecco's Modified Eagle's Medium), 5 mmol/L L-glutamine (Gibco), and 10% fetal calf serum (Hyclone Lot# 114577). For all experiments, the endothelial cells were placed in 10% lipoprotein-deficient serum (Sigma, Lot#26H9403 1) for 48 h prior to treatment conditions. […] Cellular viability as determined by cell count, morphology, and Trypan blue exclusion was maintained for all treatment conditions.
Cellular proteins were prepared and separated on SDS/PAGE as described (Liao, J K et al., J Biol Chem, 1995, 270:319-324.). Immunoblotting was performed using a murine monoclonal antibody to human ecNOS (1:400 dilution, Transduction Laboratories, Lexington, Ky.). Immunodetection was accomplished using a sheep anti-mouse secondary antibody (1:4000 dilution) and the enhanced chemiluminescence (ECL) kit (Amersham Corp., Arlington Heights, Ill.). Autoradiography was performed at 23° C. and the appropriate exposures were quantitated by densitometry.
Human endothelial cells were harvested from saphenous veins using Type II collagenase (Worthington Biochemical Corp., Freehold, N.J.) as previously described. Cells of less than three passages were grown to confluence in a culture medium containing Medium 199, 20 mM HEPES, 50 mg/ml ECGS (Collaborative Research Inc., Bedford, Mass.), […] heparin sulfate, 5 mM L-glutamine (Gibco), 5% fetal calf serum (Hyclone, Logan, Utah), and antibiotic mixture of penicillin (100 U/ml)/ streptomycin ([…])/Fungizone (1.25 mg/ml). For all experiments, the endothelial cells were grown to confluence before any treatment conditions. In some experiments, cells were pretreated with actinomycin D (5 mg/ml) for 1 h prior to treatment with HMG-CoA reductase inhibitors. […]

ecNOS = assay: Assay for ecNOS activity (LNMA-inhibitable nitrite production); type: cell-based, human; conditions: higher concentration
ecNOS mRNA [1] = assay: Quantitative RT-PCR of ecNOS mRNA in mouse aortae and brains; type: in vivo, mice
ecNOS mRNA [2] = assay: ecNOS mRNA half-life in the presence of actinomycin D; type: cell-based, human
[3] = 1 mmol/L alone (concentration series), 48 h
[4] = 10 mmol/L alone (concentration series), 48 h

`N=C(N)NCCC[C@H](N)C(=O)O` [L-arginine] was tested. Which rCBF change (eNOS null mice) did it give?
Its rCBF change is −4 to +5%.

What about the “elevation in regional cerebral blood flow (rCBF)” value (wild type mice; L-arginine 300 mg/kg, i.v., preliminary experiments) of the same compound?
The value was 10%.

What about the “time at which increase in rCBF began” value (wild type mice; L-arginine 450 mg/kg, i.v., wild type mice) of the same compound?
The value was 5 to 10 min.

What about the “maximum increase in rCBF above baseline” value (wild type mice; L-arginine 450 mg/kg, i.v., wild type mice, at 20-25 min) of the same compound?
Its value is 26%.

And the “additional time for which rCBF increases were sustained” value (wild type mice; L-arginine infusion in simvastatin-treated mice)?
The value was 20 min.

And the “maximum increase in rCBF over simvastatin baseline” value (wild type mice; L-arginine infusion in simvastatin-treated mice, at 15-20 min)?
Its value is 29-31%.

How did the “reduction of cerebral infarct size” value (wildtype SV-129 mice) turn out when `CC[C@H](C)C(=O)O[C@H]1C[C@@H](C)C=C2C=C[C@H](C)[C@H](CC[C@@H]3C[C@@H](O)CC(=O)O3)[C@H]21` [lovastatin] was run?
The value was “also occurred with lovastatin treatment, albeit at higher relative concentrations”.

And the “increase in ecNOS protein levels / ecNOS expression” value (ecNOS protein; 48 h)?
Its value is 10%.

And the “increase in ecNOS expression” value (ecNOS protein; [3])?
Its value is 105%.

And the “increase in ecNOS expression” value (ecNOS protein; [4])?
Its value is 180%.

And the “potency in upregulating ecNOS protein levels, less potent than simvastatin” value (ecNOS protein; equimolar concentrations)?
The value was 10 fold.

And the “effect on ecNOS expression” value (ecNOS protein; not chemically-activated)?
Its value is “had no effect on ecNOS expression”.

What about the “concentration needed for similar findings, compared to that of simvastatin” value (ecNOS) of the same compound?
The value was 10 fold.

Which results are given for `CCC(C)(C)C(=O)O[C@H]1C[C@@H](C)C=C2C=C[C@H](C)[C@H](CC[C@@H]3C[C@@H](O)CC(=O)O3)[C@H]21` [simvastatin]?
increase in baseline rCBF (wild type mice; chronic daily administration of simvastatin alone): 25%; increase in ecNOS expression (ecNOS protein; 0.01 mmol/L alone (series 0.01 to 10 mmol/L), 48 h): 1%; increase in ecNOS protein levels (ecNOS protein; 12 h): 4%; increase in ecNOS protein levels (ecNOS protein; 24 h): 21%; increase in ecNOS protein levels / ecNOS expression (ecNOS protein; 48 h): 80%; increase in ecNOS protein levels (ecNOS protein; 72 h): 90%; increase in ecNOS protein levels (ecNOS protein; 84 h): 95%; increase in ecNOS expression (ecNOS protein; [3]): 190%; increase in ecNOS expression (ecNOS protein; [4]): 310%; decrease in ecNOS protein level (ecNOS protein; simvastatin 0.1 mmol/L + ox-LDL 50 mg/ml, 24 h): 15%; ecNOS protein levels increased above basal expression (ecNOS protein; simvastatin 0.1 mmol/L + ox-LDL 50 mg/ml, 72 h): 110%; ecNOS protein levels increased above basal expression (ecNOS protein; simvastatin 0.1 mmol/L + ox-LDL 50 mg/ml, 96 h): 124%; ecNOS expression above basal expression (ecNOS protein; simvastatin 1 mmol/L + ox-LDL 50 mg/ml (TBARS 15.1 nmol/mg), 48 h): 150%; ecNOS protein levels above baseline (ecNOS protein; simvastatin 10 mmol/L + ox-LDL 50 mg/ml, 48 h): 210%±12%; increase in ecNOS expression in infarcted, ipsilateral hemisphere compared to contralateral side (ecNOS mRNA [1]; simvastatin 2 mg/kg, 14 days, brain, with respect to GAPDH mRNA): 1.5-to 2 fold; increase of ecNOS message compared to that of GAPDH, aortae (ecNOS mRNA [1]; simvastatin-treated mice, dose-dependent): 3 fold; half-life of ecNOS mRNA (t½) (ecNOS mRNA [2]; simvastatin 0.1 mmol/L + ox-LDL): 22 ± 3 h; half-life of ecNOS mRNA (t½) (ecNOS mRNA [2]; simvastatin alone): 43 ± 4 h

For L-mevalonate, which “reduction of ecNOS protein compared to cells treated with ox-LDL and simvastatin” value (ecNOS protein; addition of L-mevalonate 100 mmol/L to ox-LDL + simvastatin 1 mmol/L) is on record?
Its value is 50%±5%.

And the “observable adverse effects on cellular morphology” value (human endothelial cell)?
The value was “no observable adverse effects”.
